The assay deals with AOM+DSS-induced colorectal tumor. Put plainly: AOM+DSS-induced spontaneous colorectal cancer mouse model. As to conditions: zalcitabine 33 mg/Kg alone, one month. It is filed as in vivo, mice. The procedure: The classical intraperitoneal injection of AOM and the spontaneous colorectal cancer formation by three rounds of DSS were utilized to construct a tumor mouse model. Mice were treated with ethidium bromide (500 mg/L dissolved in drinking water) one week after completion of the construction. […] Mice were sacrificed and their colorectum was taken for photographic observation and fixed staining.
To further verify the above results, we then expanded the sample size to about 10-16 mice per group and still used the above AOM+DSS protocol to induce spontaneous colorectal cancer formation in mice. […] Meanwhile, since it has been reported that zalcitabine (ddC) can effectively impair the function of mitochondria (mainly the replication of mtDNA, similar to ethidium bromide), we added the experimental group of zalcitabine (33 mg/Kg) as a control.
In addition, in order to investigate in what way ethidium bromide clears tumors in mice, we also tested cell proliferation (FIGS. 8A and B) and apoptosis (FIG. 8C-F) in tumor tissues and normal tissues surrounding the tumors in different treatment groups. Among them, cell proliferation was detected by immunohistochemistry of Ki67-positive cells, and apoptosis was detected by immunofluorescence staining of cleaved Caspase3.
To further verify whether ethidium bromide is still effective against already existing larger tumors (advanced colorectal cancer), we set aside a group of control mice (started administration 5 weeks after the end of induction, equivalent to the control group of mice described above) to administer them by gavage (20 mg/Kg per day).
We investigated the mechanism of ethidium bromide-induced apoptosis in tumor cells. First, tumor tissues treated with ethidium bromide (mice shown in FIGS. 7 and 8, treated for 4 weeks at 20 mg/Kg per day) were subjected to SDS-Loading buffer boiling lysis and tested for associated signaling pathways by Western blotting.

In the case of `Nc1ccn([C@H]2CC[C@@H](CO)O2)c(=O)n1` [zalcitabine, reference compound], the “effect on spontaneous colorectal tumors” value is “had no effect”.

The record behind these values is patent US20250152577A1, “Pharmaceutical Composition of Ethidium Bromide and Use in Treating Cancer” (RUIJIN HOSPITAL, SHANGHAI JIAOTONG UNIVERSITY SCHOOL OF …, priority 2022, published 2025).
